This is an account of results in US8614327B2 (Vertex Pharmaceuticals Incorporated, priority 2004, dated 2013).

Broadly, the EC50 is the midpoint of the concentration-response curve.

In this experiment the target is T1, ΔF508-CFTR (Homo sapiens, UniProt P13569, DEL508-508).
T1 construct: expressed in transfected cells
Nature of the experiment: Membrane potential optical (FRET/VIPR) assay, identification of potentiator compounds. The following applies: Table 3, assay not given; for % Activity: relative efficacy. It is filed as cell-based. Put shortly:
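NIH3T3 mouse fibroblasts stably expressing ΔF508-CFTR, temperature-corrected 24 h at 27° C., read on VIPR by FRET between CC2-DMPE and DiSBAC2(3). Potentiators identified in a double-addition format, first adding chloride-free (gluconate) medium with or without compound.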

T1 sequence (P13569 with tags, fused parts or gaps DEL508-508): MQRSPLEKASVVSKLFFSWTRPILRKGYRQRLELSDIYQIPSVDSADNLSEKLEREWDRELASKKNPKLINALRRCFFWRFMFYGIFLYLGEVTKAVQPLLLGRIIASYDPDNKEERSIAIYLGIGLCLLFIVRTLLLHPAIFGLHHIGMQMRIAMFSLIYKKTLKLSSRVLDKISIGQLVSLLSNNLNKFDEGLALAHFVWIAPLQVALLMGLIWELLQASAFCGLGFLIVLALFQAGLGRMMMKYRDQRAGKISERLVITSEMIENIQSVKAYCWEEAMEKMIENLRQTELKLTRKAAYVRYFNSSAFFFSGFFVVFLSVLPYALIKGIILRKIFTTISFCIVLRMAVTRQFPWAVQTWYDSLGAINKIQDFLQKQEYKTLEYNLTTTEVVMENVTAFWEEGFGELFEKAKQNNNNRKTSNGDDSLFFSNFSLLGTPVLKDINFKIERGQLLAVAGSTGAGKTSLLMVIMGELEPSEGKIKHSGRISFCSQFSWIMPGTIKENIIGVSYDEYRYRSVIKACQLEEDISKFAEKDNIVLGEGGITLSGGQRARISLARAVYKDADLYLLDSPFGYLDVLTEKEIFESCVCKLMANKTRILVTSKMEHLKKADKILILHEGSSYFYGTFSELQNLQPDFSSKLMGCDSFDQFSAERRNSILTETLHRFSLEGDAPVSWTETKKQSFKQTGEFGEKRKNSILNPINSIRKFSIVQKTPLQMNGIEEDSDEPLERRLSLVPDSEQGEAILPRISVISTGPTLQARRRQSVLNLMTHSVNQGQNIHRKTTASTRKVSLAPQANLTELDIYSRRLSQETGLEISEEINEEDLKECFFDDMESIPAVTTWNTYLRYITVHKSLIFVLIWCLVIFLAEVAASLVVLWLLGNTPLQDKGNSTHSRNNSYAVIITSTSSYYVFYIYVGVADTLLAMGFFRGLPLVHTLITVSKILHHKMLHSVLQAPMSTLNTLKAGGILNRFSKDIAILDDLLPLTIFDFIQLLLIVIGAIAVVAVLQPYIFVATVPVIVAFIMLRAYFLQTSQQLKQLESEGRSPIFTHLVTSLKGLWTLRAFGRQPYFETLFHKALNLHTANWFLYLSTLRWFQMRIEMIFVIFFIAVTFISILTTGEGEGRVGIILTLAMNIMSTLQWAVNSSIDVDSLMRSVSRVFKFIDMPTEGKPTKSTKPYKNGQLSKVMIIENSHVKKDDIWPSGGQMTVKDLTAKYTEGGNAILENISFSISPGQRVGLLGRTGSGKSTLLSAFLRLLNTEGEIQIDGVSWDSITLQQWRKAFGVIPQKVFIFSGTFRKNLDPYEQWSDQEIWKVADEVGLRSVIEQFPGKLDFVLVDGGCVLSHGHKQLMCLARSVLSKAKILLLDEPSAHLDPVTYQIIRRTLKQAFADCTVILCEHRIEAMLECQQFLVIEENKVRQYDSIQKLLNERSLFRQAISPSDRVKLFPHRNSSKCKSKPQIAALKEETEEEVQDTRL

Regarding `CC(C)(C)c1cccc(NC(=O)c2c[nH]c3ccccc3c2=O)c1` [Compound 602, 4-oxo-N-(3-tert-butylphenyl)-1H-quinoline-3-carboxamide], the EC50 was less than 10 µM and the “% Activity” value is listed as “++ (between 25% to 100%)”.

In the case of `CC(=O)c1ccc2c(=O)c(C(=O)Nc3cc(O)c(C(C)(C)C)cc3C(C)(C)C)c[nH]c2c1` [Compound 604, 7-acetyl-N-(5-hydroxy-2,4-ditert-butyl-phenyl)-4-oxo-1H-quinoline-3-carboxamide], the EC50 is less than 10 µM and the “% Activity” value is given as “++ (between 25% to 100%)”.

Turning to `CCc1cccc2c(=O)c(C(=O)Nc3cc(O)c(C(C)(C)C)cc3F)c[nH]c12` [Compound 605, 8-ethyl-N-(2-fluoro-5-hydroxy-4-tert-butyl-phenyl)-4-oxo-1H-quinoline-3-carboxamide], the EC50 fell in the range of 10 to 25 µM and the “% Activity” value is listed as “+ (<25%)”.

As for `CC1(c2ccc(NC(=O)c3c[nH]c4cccc(O)c4c3=O)cc2O)CCCCC1` [Compound 606, 5-hydroxy-N-[3-hydroxy-4-(1-methylcyclohexyl)-phenyl]-4-oxo-1H-quinoline-3-carboxamide], the EC50 is less than 10 µM and the “% Activity” value is given as “+ (<25%)”.

Consider `Cc1ccc2c(=O)c(C(=O)Nc3ccc(N4CCC[C@@H]4C)cc3C(F)(F)F)c[nH]c2c1` [Compound 607, (S)-7-methyl-N-(4-(2-methylpyrrolidin-1-yl)-2-(trifluoromethyl)phenyl)-4-oxo-1,4-dihydroquinoline-3-carboxamide], for which the EC50 was less than 10 µM and the “% Activity” value is recorded as “++ (between 25% to 100%)”.

Consider `O=C(Nc1cc(O)c(Cl)cc1Cl)c1c[nH]c2ccccc2c1=O` [Compound 608, N-(2,4-dichloro-5-hydroxy-phenyl)-4-oxo-1H-quinoline-3-carboxamide], for which the concentration for a half-maximal effect (EC50) is less than 10 µM and the “% Activity” value was “++ (between 25% to 100%)”.

For the compound `CC(C)(C)c1ccc(O)cc1NC(=O)c1c[nH]c2cccc(O)c2c1=O` [Compound 609, 5-hydroxy-N-(5-hydroxy-2-tert-butyl-phenyl)-4-oxo-1H-quinoline-3-carboxamide], the EC50 was less than 10 µM and the “% Activity” value is recorded as “++ (between 25% to 100%)”.

Turning to `CC(C)(C)c1cc(F)c(NC(=O)c2c[nH]c3cccc(F)c3c2=O)cc1O` [Compound 610, 5-fluoro-N-(2-fluoro-5-hydroxy-4-tert-butyl-phenyl)-4-oxo-1H-quinoline-3-carboxamide], the EC50 is less than 10 µM and the “% Activity” value is “++ (between 25% to 100%)”.

For the compound `COc1cc2c(=O)c(C(=O)Nc3cc4[nH]ccc4cc3C(C)(C)C)c[nH]c2cc1F` [Compound 611, 7-fluoro-6-methoxy-4-oxo-N-(5-tert-butyl-1H-indol-6-yl)-1H-quinoline-3-carboxamide], the EC50 is less than 10 µM and the “% Activity” value is “+++ (>100%)”.

For the compound `CC1(C)CCCN(c2ccc(NC(=O)c3c[nH]c4ccccc4c3=O)c(C(F)(F)F)c2)C1` [Compound 612, N-[4-(3,3-dimethyl-1-piperidyl)-2-(trifluoromethyl)phenyl]-4-oxo-1H-quinoline-3-carboxamide], the concentration for a half-maximal effect (EC50) is less than 10 µM and the “% Activity” value is “++ (between 25% to 100%)”.

Consider `Cc1cccc2[nH]cc(C(=O)Nc3ccc(N4CC[C@@H](C)C4)cc3C(F)(F)F)c(=O)c12` [Compound 613, (R)-5-methyl-N-(4-(3-methylpyrrolidin-1-yl)-2-(trifluoromethyl)phenyl)-4-oxo-1,4-dihydroquinoline-3-carboxamide], for which the EC50 is less than 10 µM and the “% Activity” value is “++ (between 25% to 100%)”.

On to `O=C(Nc1ccc(Oc2cccnc2)cc1)c1c[nH]c2ccccc2c1=O` [Compound 614, 4-oxo-N-[4-(3-pyridyloxy)phenyl]-1H-quinoline-3-carboxamide], for which the EC50 is less than 10 µM and the “% Activity” value is given as “++ (between 25% to 100%)”.

As to `Cc1cc(N2CCCC2)ccc1NC(=O)c1c[nH]c2ccccc2c1=O` [Compound 615, N-(2-methyl-4-pyrrolidin-1-yl-phenyl)-4-oxo-1H-quinoline-3-carboxamide], the EC50 was less than 10 µM and the “% Activity” value is “+++ (>100%)”.

On to `CCOc1cccc2c(=O)c(C(=O)Nc3cc(O)c(C(C)(C)C)cc3C(C)(C)C)c[nH]c12` [Compound 616, 8-ethoxy-N-(5-hydroxy-2,4-ditert-butyl-phenyl)-4-oxo-1H-quinoline-3-carboxamide], for which the half-maximal effective concentration (EC50) is 10 to 25 µM and the “% Activity” value is reported as “+ (<25%)”.

Regarding `COc1cc2[nH]cc(C(=O)Nc3cc(O)c(C(C)(C)C)cc3C(C)(C)C)c(=O)c2cc1F` [Compound 617, 6-fluoro-N-(5-hydroxy-2,4-ditert-butyl-phenyl)-7-methoxy-4-oxo-1H-quinoline-3-carboxamide], the 50% effective concentration (EC50) is less than 10 µM and the “% Activity” value is “+++ (>100%)”.

With `C[C@H]1CCCN1c1ccc(NC(=O)c2c[nH]c3ccccc3c2=O)c(C(F)(F)F)c1` [Compound 618, (S)-N-(4-(2-methylpyrrolidin-1-yl)-2-(trifluoromethyl)phenyl)-4-oxo-1,4-dihydroquinoline-3-carboxamide], the EC50 is less than 10 µM and the “% Activity” value is on record as “++ (between 25% to 100%)”.

Regarding `O=C(Nc1cc(O)c(C2CCCCC2)cc1C(F)(F)F)c1c[nH]c2ccccc2c1=O` [Compound 619, N-[4-cyclohexyl-5-hydroxy-2-(trifluoromethyl)phenyl]-4-oxo-1H-quinoline-3-carboxamide], the EC50 is less than 10 µM and the “% Activity” value is reported as “+++ (>100%)”.

As to `Cc1cccc2c(=O)c(C(=O)Nc3cc(O)c(C(C)(C)C)cc3C(C)(C)C)c[nH]c12` [Compound 621, N-(5-hydroxy-2,4-ditert-butyl-phenyl)-8-methyl-4-oxo-1H-quinoline-3-carboxamide], the EC50 was less than 10 µM and the “% Activity” value is given as “+ (<25%)”.

For the compound `N#Cc1cc(N2CCCC2)ccc1NC(=O)c1c[nH]c2ccccc2c1=O` [Compound 622, N-(2-cyano-4-pyrrolidin-1-yl-phenyl)-4-oxo-1H-quinoline-3-carboxamide], the EC50 is less than 10 µM and the “% Activity” value was “++ (between 25% to 100%)”.

Turning to `CC(C)(C)c1cc(C(C)(C)C)c(NC(=O)c2c[nH]c3ccc(Cl)cc3c2=O)cc1O` [Compound 623, 6-chloro-N-(5-hydroxy-2,4-ditert-butyl-phenyl)-4-oxo-1H-quinoline-3-carboxamide], the EC50 was less than 10 µM and the “% Activity” value is given as “++ (between 25% to 100%)”.

For the compound `Cc1ccc2[nH]cc(C(=O)Nc3cc(O)c(C4(C)CCCCC4)cc3F)c(=O)c2c1` [Compound 624, N-[2-fluoro-5-hydroxy-4-(1-methylcyclohexyl)-phenyl]-6-methyl-4-oxo-1H-quinoline-3-carboxamide], the EC50 was less than 10 µM and the “% Activity” value is listed as “++ (between 25% to 100%)”.

As for `Cc1cccc2c(=O)c(C(=O)Nc3cc(O)c(C(C)(C)C)cc3F)c[nH]c12` [Compound 625, N-(2-fluoro-5-hydroxy-4-tert-butyl-phenyl)-8-methyl-4-oxo-1H-quinoline-3-carboxamide], the EC50 is less than 10 µM and the “% Activity” value is “+ (<25%)”.

For `Cc1cccc2[nH]cc(C(=O)Nc3ccc(N4CC[C@H](F)C4)cc3C(F)(F)F)c(=O)c12` [Compound 626, (S)-N-(4-(3-fluoropyrrolidin-1-yl)-2-(trifluoromethyl)phenyl)-5-methyl-4-oxo-1,4-dihydroquinoline-3-carboxamide], the EC50 is less than 10 µM and the “% Activity” value is reported as “++ (between 25% to 100%)”.

For `CC(CO)(CO)c1ccc(NC(=O)c2c[nH]c3ccc(F)cc3c2=O)cc1` [Compound 627, 6-fluoro-N-[4-[2-hydroxy-1-(hydroxymethyl)-1-methyl-ethyl]phenyl]-4-oxo-1H-quinoline-3-carboxamide], the EC50 is less than 10 µM and the “% Activity” value is “+ (<25%)”.

`O=C(Nc1ccc(OC(F)(F)F)cc1Cl)c1c[nH]c2ccccc2c1=O` [Compound 628, N-[2-chloro-4-(trifluoromethoxy)phenyl]-4-oxo-1H-quinoline-3-carboxamide]: the EC50 was less than 10 µM and the “% Activity” value was “++ (between 25% to 100%)”.

With `CC(C)(C)OC(=O)[C@@H]1CCCN1c1ccc(NC(=O)c2c[nH]c3ccccc3c2=O)c(C(F)(F)F)c1` [Compound 629, (S)-tert-butyl 1-(4-(4-oxo-1,4-dihydroquinoline-3-carboxamido)-3-(trifluoromethyl)phenyl)pyrrolidine-2-carboxylate], the EC50 is less than 10 µM and the “% Activity” value was “++ (between 25% to 100%)”.

With `O=C(Nc1cc(C(F)(F)F)ccc1C(F)(F)F)c1c[nH]c2ccccc2c1=O` [Compound 630, N-[2,5-bis(trifluoromethyl)phenyl]-4-oxo-1H-quinoline-3-carboxamide], the EC50 is less than 10 µM and the “% Activity” value is recorded as “++ (between 25% to 100%)”.

Take `COC(=O)[C@]1(C)CCCN1c1ccc(NC(=O)c2c[nH]c3ccccc3c2=O)c(C(F)(F)F)c1` [Compound 631, (S)-methyl 2-methyl-1-(4-(4-oxo-1,4-dihydroquinoline-3-carboxamido)-3-(trifluoromethyl)phenyl)pyrrolidine-2-carboxylate]: the EC50 was less than 10 µM and the “% Activity” value is reported as “+++ (>100%)”.

Consider `CC(C)(C)c1cc2cc[nH]c2cc1NC(=O)c1c[nH]c2cc(OC(F)(F)F)ccc2c1=O` [Compound 632, 4-oxo-N-(5-tert-butyl-1H-indol-6-yl)-7-(trifluoromethoxy)-1H-quinoline-3-carboxamide], for which the EC50 is less than 10 µM and the “% Activity” value is “++ (between 25% to 100%)”.

Regarding `CC(C)(C)c1ccc(NC(=O)c2c[nH]c3cccc(O)c3c2=O)cc1O` [Compound 633, 5-hydroxy-N-(3-hydroxy-4-tert-butyl-phenyl)-4-oxo-1H-quinoline-3-carboxamide], the EC50 is less than 10 µM and the “% Activity” value is reported as “++ (between 25% to 100%)”.
